# Experimental data published in US12599597B2, “Substituted N-benzhydrylacetamide inhibitors of jumanji domain histone demethylases for the treatment of cancer” (University of Kentucky Research Foundation, priority 2020, dated 2026).
# Assays:
# Test in all cases: Histone demethylase assay, purified enzyme panel
# Type in all cases: biochemical
# Conditions in all cases: 58B1, 10 μM
# UTX (KDM6A) = UTX (KDM6A) (Homo sapiens, UniProt O15550)
# Text: (§1) Histone Demethylase Assay
# (§2) To further examine the effects of 58B1 on histone demethylase, we screened a panel of purified histone demethylases was screened.
# FBXL10 (KDM2B) = biological target: T1, FBXL10 (KDM2B) (Homo sapiens, UniProt Q8NHM5)
# T1 sequence (Q8NHM5 1-1336): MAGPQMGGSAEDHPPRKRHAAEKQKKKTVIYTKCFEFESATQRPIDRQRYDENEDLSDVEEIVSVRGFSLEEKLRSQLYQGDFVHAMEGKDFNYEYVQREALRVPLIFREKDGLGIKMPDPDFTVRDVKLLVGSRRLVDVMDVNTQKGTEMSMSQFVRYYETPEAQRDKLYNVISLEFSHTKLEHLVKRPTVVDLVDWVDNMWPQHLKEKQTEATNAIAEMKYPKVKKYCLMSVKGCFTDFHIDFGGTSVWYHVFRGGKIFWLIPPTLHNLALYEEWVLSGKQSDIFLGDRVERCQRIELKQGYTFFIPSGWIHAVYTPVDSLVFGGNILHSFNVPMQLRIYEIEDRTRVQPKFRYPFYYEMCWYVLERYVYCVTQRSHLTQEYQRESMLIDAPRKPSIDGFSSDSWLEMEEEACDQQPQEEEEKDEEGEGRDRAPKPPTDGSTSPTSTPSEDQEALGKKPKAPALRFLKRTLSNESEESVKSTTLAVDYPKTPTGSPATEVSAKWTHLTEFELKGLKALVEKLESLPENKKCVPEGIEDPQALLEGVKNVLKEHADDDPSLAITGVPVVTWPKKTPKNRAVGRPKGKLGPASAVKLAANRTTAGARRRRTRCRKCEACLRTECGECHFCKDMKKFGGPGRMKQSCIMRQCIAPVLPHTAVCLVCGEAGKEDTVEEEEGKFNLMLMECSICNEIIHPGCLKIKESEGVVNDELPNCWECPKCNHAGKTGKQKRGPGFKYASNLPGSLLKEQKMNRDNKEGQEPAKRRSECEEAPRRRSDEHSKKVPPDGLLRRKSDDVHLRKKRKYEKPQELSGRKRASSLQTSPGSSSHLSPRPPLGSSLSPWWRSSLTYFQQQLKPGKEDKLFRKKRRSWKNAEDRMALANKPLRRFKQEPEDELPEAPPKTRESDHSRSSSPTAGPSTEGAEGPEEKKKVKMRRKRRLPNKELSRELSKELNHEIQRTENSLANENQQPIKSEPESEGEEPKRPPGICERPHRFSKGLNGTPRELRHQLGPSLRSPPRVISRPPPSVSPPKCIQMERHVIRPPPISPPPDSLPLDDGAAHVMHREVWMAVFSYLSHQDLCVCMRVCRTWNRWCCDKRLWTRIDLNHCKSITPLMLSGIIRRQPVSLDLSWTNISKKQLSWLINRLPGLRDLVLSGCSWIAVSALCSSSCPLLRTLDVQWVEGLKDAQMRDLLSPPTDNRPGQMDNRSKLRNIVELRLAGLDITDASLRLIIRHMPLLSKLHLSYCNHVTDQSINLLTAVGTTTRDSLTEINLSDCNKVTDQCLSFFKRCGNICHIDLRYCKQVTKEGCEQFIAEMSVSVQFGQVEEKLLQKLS
# Text: as §1, §2
# JMJD2A (KDM4A) = biological target: T2, JMJD2A (KDM4A) (Homo sapiens, UniProt O75164)
# T2 sequence (O75164 1-1064): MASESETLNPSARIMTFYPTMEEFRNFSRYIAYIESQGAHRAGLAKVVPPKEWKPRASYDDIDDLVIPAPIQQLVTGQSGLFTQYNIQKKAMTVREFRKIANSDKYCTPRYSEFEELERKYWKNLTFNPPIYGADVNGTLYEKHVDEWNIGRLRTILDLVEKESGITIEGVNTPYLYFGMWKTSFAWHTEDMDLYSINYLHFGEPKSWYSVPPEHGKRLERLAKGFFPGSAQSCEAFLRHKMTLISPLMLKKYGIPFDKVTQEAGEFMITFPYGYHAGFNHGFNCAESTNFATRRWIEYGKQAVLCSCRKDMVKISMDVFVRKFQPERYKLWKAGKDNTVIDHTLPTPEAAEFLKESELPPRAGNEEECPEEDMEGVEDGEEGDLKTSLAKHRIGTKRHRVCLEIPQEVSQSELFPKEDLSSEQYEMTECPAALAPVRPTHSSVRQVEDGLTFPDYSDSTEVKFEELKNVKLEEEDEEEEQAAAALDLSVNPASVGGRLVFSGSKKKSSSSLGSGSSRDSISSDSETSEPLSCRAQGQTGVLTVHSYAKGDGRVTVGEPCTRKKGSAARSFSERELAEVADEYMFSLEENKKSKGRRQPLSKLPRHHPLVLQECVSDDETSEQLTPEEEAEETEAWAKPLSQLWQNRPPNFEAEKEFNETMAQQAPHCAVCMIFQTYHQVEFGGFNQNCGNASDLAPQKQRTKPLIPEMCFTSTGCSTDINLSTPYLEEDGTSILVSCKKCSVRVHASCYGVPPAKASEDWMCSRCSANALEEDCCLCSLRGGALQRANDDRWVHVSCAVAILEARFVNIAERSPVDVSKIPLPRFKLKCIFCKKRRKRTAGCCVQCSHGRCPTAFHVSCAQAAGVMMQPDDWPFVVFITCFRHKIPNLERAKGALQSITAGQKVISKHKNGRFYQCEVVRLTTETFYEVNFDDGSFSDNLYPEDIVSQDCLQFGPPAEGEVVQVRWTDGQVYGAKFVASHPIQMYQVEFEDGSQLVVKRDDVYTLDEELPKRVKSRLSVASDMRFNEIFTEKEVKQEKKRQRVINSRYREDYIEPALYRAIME
# Text: as §1, §2
# Chain of UTX (KDM6A) (O15550 whole entry): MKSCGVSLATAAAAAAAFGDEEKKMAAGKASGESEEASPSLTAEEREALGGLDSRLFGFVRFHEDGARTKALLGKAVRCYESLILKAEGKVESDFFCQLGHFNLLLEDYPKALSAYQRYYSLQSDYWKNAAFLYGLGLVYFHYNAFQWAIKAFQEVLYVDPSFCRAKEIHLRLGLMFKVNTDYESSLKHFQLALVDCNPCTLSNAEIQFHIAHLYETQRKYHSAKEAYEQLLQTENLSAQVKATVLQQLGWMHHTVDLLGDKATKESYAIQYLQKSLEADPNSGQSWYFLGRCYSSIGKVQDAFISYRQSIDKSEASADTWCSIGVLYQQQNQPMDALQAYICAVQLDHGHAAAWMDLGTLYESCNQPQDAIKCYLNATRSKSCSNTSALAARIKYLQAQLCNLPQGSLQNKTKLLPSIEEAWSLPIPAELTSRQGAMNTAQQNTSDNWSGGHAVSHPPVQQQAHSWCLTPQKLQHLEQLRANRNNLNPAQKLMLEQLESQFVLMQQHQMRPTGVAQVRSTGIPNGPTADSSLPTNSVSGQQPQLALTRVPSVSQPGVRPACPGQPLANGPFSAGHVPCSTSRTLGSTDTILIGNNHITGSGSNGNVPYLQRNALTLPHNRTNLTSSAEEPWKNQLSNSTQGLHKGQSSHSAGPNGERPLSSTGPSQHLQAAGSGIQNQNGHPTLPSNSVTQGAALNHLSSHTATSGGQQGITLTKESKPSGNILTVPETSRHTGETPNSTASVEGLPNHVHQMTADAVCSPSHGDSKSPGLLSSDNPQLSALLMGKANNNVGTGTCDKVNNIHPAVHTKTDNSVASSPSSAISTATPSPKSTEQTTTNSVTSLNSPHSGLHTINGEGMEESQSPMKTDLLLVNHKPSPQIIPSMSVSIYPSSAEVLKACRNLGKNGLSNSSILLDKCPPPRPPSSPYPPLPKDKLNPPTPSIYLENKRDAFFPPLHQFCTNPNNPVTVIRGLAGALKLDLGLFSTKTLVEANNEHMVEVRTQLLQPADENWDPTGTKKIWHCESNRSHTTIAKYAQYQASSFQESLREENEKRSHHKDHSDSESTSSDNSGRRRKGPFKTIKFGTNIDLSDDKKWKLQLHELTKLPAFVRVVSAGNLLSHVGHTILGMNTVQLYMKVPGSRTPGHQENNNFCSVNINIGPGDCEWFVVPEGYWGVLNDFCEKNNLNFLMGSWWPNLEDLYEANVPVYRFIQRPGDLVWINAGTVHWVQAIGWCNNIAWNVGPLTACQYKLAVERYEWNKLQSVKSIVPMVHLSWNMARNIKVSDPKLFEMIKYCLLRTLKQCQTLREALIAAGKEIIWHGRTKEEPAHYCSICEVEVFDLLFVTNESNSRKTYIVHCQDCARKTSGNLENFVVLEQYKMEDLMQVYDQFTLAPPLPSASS
structure (smiles),measurement,setting,value
CCCC(=O)NC(c1ccc(N(CC)CC)cc1)c1cc(Cl)c2cccnc2c1O (stereo not drawn) [58B1],inhibition at 10 µM,UTX (KDM6A),100%
same,inhibition at 10 µM,FBXL10 (KDM2B),30%
same,inhibition at 10 µM,JMJD2A (KDM4A),64%
